These results are taken from publication PMC4883112 (Journal of medicinal chemistry, 2015).

The structures appear in SMILES notation. ≈ marks a conversion by molar mass, not a printed value. Entries after “also recorded” stand apart in the source; their conditions may differ.

A short description of data set [1]: Aqueous solubility, Shake-Flask method and HPLC. In kind it is physicochemical. As to conditions: water with 2% DMSO.
Another data set addresses GSK-3β (Sus scrofa, UniProt B2LUN4). The data set is described as follows: Commercial in vitro GSK-3β inhibition assay at single concentration. In kind it is biochemical, porcine. The conditions noted are these: duplicates; for inhibition at 1 µM: read-out: GSK-3β Inhibition [%], 1 μM of compound.
The test system of data set [2] is wild-type zebrafish (Danio rerio) embryos. The data set is described as follows: Wild-type zebrafish embryo phenotype assay. The conditions noted are these: for Lethality in zebrafish embryos: concentration range < 60μM, added 24 hpf, compared at 96 and 120 hpf.
Another data set deals with GSK-3α (Sus scrofa, UniProt I6LNT8). The data set is described as follows: Commercial in vitro GSK-3α inhibition assay at single concentration. Type of data set: biochemical, porcine. The conditions noted are these: read-out: GSK-3α Inhibition [%].
GSK-3α, sequence (I6LNT8 1-483): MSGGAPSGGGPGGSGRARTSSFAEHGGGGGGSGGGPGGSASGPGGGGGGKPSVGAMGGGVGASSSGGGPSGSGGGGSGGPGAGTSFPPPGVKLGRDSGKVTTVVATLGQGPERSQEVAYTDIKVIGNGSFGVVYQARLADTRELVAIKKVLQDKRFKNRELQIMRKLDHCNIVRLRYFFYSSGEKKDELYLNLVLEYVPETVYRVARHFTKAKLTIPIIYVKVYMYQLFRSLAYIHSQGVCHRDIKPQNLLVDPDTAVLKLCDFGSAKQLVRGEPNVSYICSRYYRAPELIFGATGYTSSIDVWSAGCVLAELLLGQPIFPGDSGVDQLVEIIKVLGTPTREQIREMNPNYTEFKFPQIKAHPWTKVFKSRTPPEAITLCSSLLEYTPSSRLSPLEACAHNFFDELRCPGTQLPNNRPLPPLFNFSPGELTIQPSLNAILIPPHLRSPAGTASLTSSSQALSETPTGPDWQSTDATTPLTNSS
Another data set concerns the target GSK-3β (h) (Homo sapiens, UniProt P49841). The data set is described as follows: IC50 determination GSK-3β. In kind it is biochemical.
For data set [3], the system named is Tyr279 GSK-3α phosphorylation. In words: GSK-3α Tyr279 phosphorylation in AML cells. Type of data set: cell-based. As to conditions: 24h treatment, increasing concentrations, NB4.
Data set [4] has as its system Tyr216 GSK-3β phosphorylation. In words: GSK-3β Tyr216 phosphorylation in AML cells. In kind it is cell-based. As to conditions: up to 20 μM; 24h treatment, NB4.
The subject of data set [5] is AML cell lines (HL-60 and NB4). In words: AML differentiation. Type of data set: cell-based. As to conditions: 6 days of treatment.
In a further data set the test system is NB4 and HL-60 cell lines. In words: Methylcellulose colony formation. Type of data set: cell-based. The conditions noted are these: concentration-dependent.

GSK-3β, sequence (B2LUN4 1-420): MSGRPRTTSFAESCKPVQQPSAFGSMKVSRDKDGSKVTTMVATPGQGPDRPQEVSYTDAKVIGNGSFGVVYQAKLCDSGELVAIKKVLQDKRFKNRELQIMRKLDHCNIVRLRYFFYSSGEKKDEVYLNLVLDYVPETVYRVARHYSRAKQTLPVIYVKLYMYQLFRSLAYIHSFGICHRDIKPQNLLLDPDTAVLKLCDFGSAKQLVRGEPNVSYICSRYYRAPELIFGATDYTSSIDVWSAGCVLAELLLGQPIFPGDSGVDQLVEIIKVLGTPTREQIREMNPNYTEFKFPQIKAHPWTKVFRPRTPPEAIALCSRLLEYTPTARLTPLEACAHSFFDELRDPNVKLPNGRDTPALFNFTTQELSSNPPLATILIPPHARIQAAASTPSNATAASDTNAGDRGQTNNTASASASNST
GSK-3β (h), sequence (P49841 whole entry): as the sequence (B2LUN4 1-420) above, with M40V, A59T, S392T, T400A, A402T, T411A counted along it

In the case of `N#Cc1cc(F)ccc1-c1ccc(CSc2nnc(-c3ccc4c(c3)OCCO4)o2)cc1` [Compound 1, 4′-(((5-(2,3-Dihydrobenzo[b][1,4]dioxin-6-yl)-1,3,4-oxadiazol-2-yl)thio)methyl)-4-fluoro-[1,1′-biphenyl]-2-carbonitrile], the solubility in data set [1] is below 1 µg/mL.

In the case of `N#Cc1cc(F)ccc1-c1ccc(CSc2nnc(-c3ccc4nc[nH]c4c3)o2)cc1` [Compound 12a, 4′-(((5-(1H-Benzo[d]imidazol-6-yl)-1,3,4-oxadiazol-2-yl)thio)methyl)-4-fluoro-[1,1′-biphenyl]-2-carbonitrile], on GSK-3β, the inhibition at 1 µM is 0%.

Regarding `N#Cc1ccc(-c2ccc(CSc3nnc(-c4ccc5c(c4)OCCO5)o3)cc2)nc1` [Compound 13d, 6-(4-((5-(2,3-Dihydrobenzo[b][1,4]dioxin-6-yl)-1,3,4-oxadiazol-2-ylthio)methyl)phenyl)-nicotinonitrile], the solubility in [1] was found to be 78 µg/mL (≈ 182 µM). In [2], the “Lethality in zebrafish embryos” value is listed as “no lethality”. Besides, in [2] (in vivo), the “Effects on zebrafish embryo phenotype” value is reported as “no effects”.

`Cc1ccc(-c2ccc(CSc3nnc(-c4ccc5c(c4)OCCO5)o3)cc2)nc1` [Compound 13e, 2-(2,3-Dihydrobenzo[b][1,4]dioxin-6-yl)-5-(4-(5-methylpyridin-2-yl)benzylthio)-1,3,4-oxadiazole] showed a solubility in [1] below 1 µg/mL.

In [1], `Fc1ccc(-c2ccc(CSc3nnc(-c4ccc5c(c4)OCCO5)o3)cc2)cn1` [Compound 13f, 2-(2,3-Dihydrobenzo[b][1,4]dioxin-6-yl)-5-((4-(6-fluoropyridin-3-yl)benzyl)thio)-1,3,4-oxadiazole] yielded a solubility of 7 µg/mL (≈ 16.6 µM).

Consider `Fc1ccc(-c2ccc(CSc3nnc(-c4ccc5c(c4)OCCO5)o3)cn2)cn1` [Compound 18c, 2-(2,3-Dihydrobenzo[b][1,4]dioxin-6-yl)-5-(((6′-fluoro-[2,3′-bipyridin]-5-yl)methyl)thio)-1,3,4-oxadiazole], for which the solubility in [1] is below 1 µg/mL.

For the compound `N#Cc1cc(F)ccc1-c1ccc(CS(=O)(=O)c2nnc(-c3ccc4c(c3)OCCO4)o2)cc1` [Compound 26, 4′-((5-(2,3-Dihydrobenzo[b][1,4]dioxin-6-yl)-1,3,4-oxadiazol-2-yl-sulfonyl)methyl)-4-fluorbiphenyl-2-carbonitrile], the inhibition at 0.1 µM on GSK-3α was found to be 0%; on GSK-3β (read-out: GSK-3β Inhibition [%], 100 nM of compound), 0%.

Regarding `NC(=O)c1cc(F)ccc1-c1ccc(CSc2nnc(-c3ccc4c(c3)OCCO4)o2)cc1` [Compound 27, 4′-((5-(2,3-Dihydrobenzo[b][1,4]dioxin-6-yl)-1,3,4-oxadiazol-2-yl-thio)-methyl)-4-fluorbiphenyl-2-carboxamide], on GSK-3α, the inhibition at 1 µM turned out to be 100%. Besides, the inhibition at 1 µM on GSK-3β was 100%. The compound also registered a 50% inhibitory concentration (IC50) at GSK-3β (h) of 14 nM. Besides, the solubility in data set [1] came to 34 µg/mL (≈ 73.4 µM). For the same compound, the “Tyr279 GSK-3α phosphorylation” value in data set [3] is given as “concentration-dependent decrease”. For the same compound, the “Tyr216 GSK-3β phosphorylation” value in [4] was “without any relevant effect”. Further, in [5], the “Morphological and surface marker changes” value is given as “consistent with AML differentiation”. Further, in the data set on NB4 and HL-60 cell lines, the Methylcellulose colony formation result is reported as “colony formation impairment”. The “Lethality in zebrafish embryos” value in data set [2] is on record as “no lethality; also recorded: without lethality”. For the same compound, in [2] (in vivo), the “Zebrafish embryo phenotype at higher concentrations” value is “all zebrafish embryos showed a stunted and crooked tailed phenotype”; the “Zebrafish embryo phenotype at lower concentrations” value is “no abnormalities were observed”.
